For data set [1], the system named is MCF-7 cells. The data set is described as follows: Cell proliferation assay in MCF-7 breast cancer cells (MTT). The data set is classed as cell-based, human. The note with it: for IC50: MCF-7 cells, 7 days of culture, MTT. How it is done: MCF-7 cells are human mammary carcinoma cells that are positive for estrogen receptors. The potential activity of vitamin D3 analogs against breast cancer was assessed from inhibition of proliferation of MCF-7 cells in culture.
MCF-7 cells were plated at 5000 cells/well in 96-well plates and incubated at 37°C in 5% CO2/95% air in Dulbecco's Modified Eagle Medium containing 10% fetal bovine serum 700 nM insulin, 2 mM glutamine, 0.1 mM MEM non-essential amino acids and 1 mM sodium pyruvate. Stock solutions of vitamin D3 analogs were prepared at a concentration of 10 mM in absolute ethanol and stored at -20°C under argon. One day after plating, MCF-7 cells were refed with either control medium or medium containing varying concentrations of the vitamin D3 analog.
For each vitamin D3 analog, the IC50 value was determined from a graph relating the optical density at 570 nm to the concentration used. The IC50 value was defined as the concentration of the vitamin D3 analog corresponding to half-maximal reduction in 570 nm absorbance.

The test system of data set [2] is ZR-75 cells. The data set is described as follows: Cell proliferation assay in ZR-75 breast cancer cells (MTT). The data set is classed as cell-based, human. The conditions noted are these: for IC50: ZR-75 cells, 10 days of culture, MTT. The procedure: ZR-75 cells are human mammary carcinoma cells that are positive for estrogen receptors. The potential activity of vitamin D3 analogs against breast cancer was assessed from inhibition of proliferation of ZR-75 cells in culture.
ZR-75 cells were plated at 12,500 cells/well in 24-well plates and incubated at 37°C in 5% CO2/95% air in RPMI medium containing 10% fetal bovine serum and 2 mM glutamine. Stock solutions of vitamin D3 analogs were prepared at a concentration of 10 mM in absolute ethanol and stored at -20°C under argon. One day after plating, ZR-75 cells were refed with either control medium or medium containing varying concentrations of the vitamin D3 analog.
The IC50 value was defined as the concentration of the vitamin D3 analog corresponding to half-maximal reduction in 570 nm absorbance.

The subject of data set [3] is parathyroid hormone. The data set is described as follows: Secondary hyperparathyroidism in the 7/8 nephrectomy rat renal insufficiency model (serum PTH, serum calcium). In kind it is in vivo, Female Sprague Dawley rats. Details: Final Ca Levels (mg/ml): unit not given here. The conditions noted are these: for PTH pg/ml T=1-T=0 / Final Ca Levels (mg/ml): 7 days, 7/8 nephrectomized rats, serum. From the text: • Compound of Formula Ia • 1,25(OH)2 vitamin D3 (control) • Vehicle - Miglyol 812
Female Sprague Dawley rats were anesthesized, their right kidney removed and 2-3 branches of the left renal artery were ligated to achieve 7/8 nephrectomy. They were placed on a high phosphorous diet (0.6% Ca and 0.8 phosphorous). Approximately 3-6 weeks after surgery, rats were bled to screen serum PTH levels and rats with PTH levels between 100-500 pg/ml were selected for the study.
There was a pre-bleed (T=0) and each group was dosed daily for seven days by oral gavage with either the compound of Formula Ia (10, 1 or 0.1 µg/kg/day), vehicle control or […] positive control. Compounds were predissolved in ethanol and diluted with vehicle (Miglyol 812) followed by evaporation of the ethanol.
After the last day of dosing, the animals were bled again (T=1) and sacrificed. Serum PTH assays were done with Nichols Institute Diagnostic Kit #40-2240. Serum calcium assays were done with Sigma Diagnostic Kit #587 with o-cresophthalein. Serum creatinine assays were done with Sigma Diagnostic Kit #1600-320 with ammonium molybdate.

In data set [4] the test system is postmenopausal osteoporosis. The conditions noted are these: 0.25 microgram twice daily, after 3 years, mild to moderate disease, versus elemental calcium 1000 mg/day; cited from earlier work.

As a reminder, the IC50 is the concentration that inhibits the measured activity by half. Take `C=C1/C(=C\C=C2/CCC[C@]3(C)[C@@H]([C@H](C)CCCC(C)(C)O)CC[C@@H]23)C[C@@H](O)C[C@@H]1O` [1,25(OH)2 vit. D3, 1,25-dihydroxyvitamin D3, reference compound]: the 50% inhibitory concentration (IC50) is 40 nM in data set [1] (Homo sapiens, MCF7, 168 h) and 13 nM in data set [2] (Homo sapiens, ZR75, 240 h). In addition, the “PTH pg/ml T=1-T=0” value in data set [3] (0.1 µg/kg/day po) is -66 pg/mL. The “lower rate of new vertebral fractures” value in data set [4] is 3 fold.
Consider “(1α,3β,5Z,7E)-21-(3-hydroxy-3-methylbutyl)-9,10-Secocholesta-5,7,10, (19)-triene-1,3,25-triol [Formula Ia]”, for which the values for the half-maximal inhibitory concentration (IC50) in data set [1] and in data set [2] were 0.8 nM and 0.3 nM, respectively. For the same compound, the “potency relative to 1,25-dihydroxy-cholecalciferol in inhibition of MCF-7 breast cells growth” value in data set [1] (ratio of IC50 values) is listed as “approximately 50 times”. For the same compound, the “potency relative to 1,25-dihydroxy-cholecalciferol in inhibition of ZR-75 breast cells growth” value in data set [2] (ratio of IC50 values) is given as “more than 40 times”. Besides, the “Final Ca Levels (mg/ml)” value in data set [3] (0.1 µg/kg/day po) turned out to be 10.20; in data set [3] (1 µg/kg/day po), 10.35; in data set [3] (10 µg/kg/day po), 11.97. Moreover, the “PTH pg/ml T=1-T=0” value was 112 pg/mL in data set [3] (0.1 µg/kg/day po), -124 pg/mL in data set [3] (1 µg/kg/day po) and -132 pg/mL in data set [3] (10 µg/kg/day po). The “suppressing the elevated levels of parathyroid hormone” value in data set [3] (compared with 1,25(OH)2 vit. D3, summary in words) was “more effective than 1,25(OH)2 vit. D3”. Moreover, the elevated calcium levels entry in data set [3] (summary in words) was “without causing elevated calcium levels”.
